Earlier results, collected in publication PMC6595297 (British Journal of Clinical Pharmacology, 2019).

System: human P‐gp transport function
Conditions: cited from earlier work

Row | SMILES | Inhibition of P‐gp (classification)
1 | CCC(C)n1ncn(-c2ccc(N3CCN(c4ccc(OCC5COC(Cn6cncn6)(c6ccc(Cl)cc6Cl)O5)cc4)CC3)cc2)c1=O (centres unmarked) [itraconazole] | strong dual inhibitor of CYP3A and P‐gp
2 | OC(Cn1cncn1)(Cn1cncn1)c1ccc(F)cc1F [fluconazole] | devoid of P‐gp inhibitory effect
